Data: patent publication US20260027116A1, “Methods of Treating Chronic Graft-Versus-Host Disease Following Allogeneic Hematopoietic Stem Cell Transplantation” (Kadmon Corporation, LLC, priority 2022, published 2026)

Tests used:
cGVHD symptoms = experiment: Example 1: Global Severity Rating (GSR); assay type: in vivo, human
Procedure: Maximal Improvement from Baseline in Global Severity Rating (GSR) by Clinician-reported cGVHD Assessment. […] The response was defined using the scores from 9 organs: skin, eyes, mouth, esophagus, upper gastrointestinal (GI) track, lower GI tract, liver, lungs, and joints and fascia plus GSR. End of treatment (EOT) visit was performed within 3 days after the participant's last dose of study drug. […] Analysis was performed on mITT population.

[1] = test system: chronic graft-versus-host disease (cGVHD); experiment: Example 2 phase II randomized study: response per 2014 NIH criteria (best ORR, DOR, TTR, FFS, OS); assay type: in vivo, human
Procedure: All responses were assessed by the study site investigators.
Here, we report data from the 12-month analysis.

CC(C)NC(=O)COc1cccc(-c2nc(Nc3ccc4[nH]ncc4c3)c3ccccc3n2)c1 [Belumosudil, 2-{3-[4-(1H-indazol-5-ylamino)-2-quinazolinyl]phenoxy}-N-(propan-2-yl) acetamide] was tested, and the “GSR maximal improvement 0, participants (%)” value (cGVHD symptoms; Cohort 1 200 mg QD) was 5 (29%) participants, the “GSR maximal improvement 1, participants (%)” value (cGVHD symptoms; Cohort 1 200 mg QD) was 0 (0%) participants and the “GSR maximal improvement 3, participants (%)” value (cGVHD symptoms; Cohort 1 200 mg QD) was 0 (0%) participants. For the same molecule, the “GSR maximal improvement from baseline −7, participants (%)” value (cGVHD symptoms; Cohort 1 200 mg QD) was 0 (0%) participants, the “GSR maximal improvement −1, participants (%)” value (cGVHD symptoms; Cohort 1 200 mg QD) was 1 (6%) participants and the “GSR maximal improvement −2, participants (%)” value (cGVHD symptoms; Cohort 1 200 mg QD) was 2 (12%) participants. For the same molecule, the “GSR maximal improvement −3, participants (%)” value (cGVHD symptoms; Cohort 1 200 mg QD) was 4 (24%) participants, the “GSR maximal improvement −4, participants (%)” value (cGVHD symptoms; Cohort 1 200 mg QD) was 2 (12%) participants and the “GSR maximal improvement −5, participants (%)” value (cGVHD symptoms; Cohort 1 200 mg QD) was 2 (12%) participants. For the same molecule, the “GSR maximal improvement −6, participants (%)” value (cGVHD symptoms; Cohort 1 200 mg QD) was 0 (0%) participants, the “GSR maximal improvement 0, participants (%)” value (cGVHD symptoms; Cohort 2 200 mg BID) was 4 (25%) participants and the “GSR maximal improvement 1, participants (%)” value (cGVHD symptoms; Cohort 2 200 mg BID) was 1 (6%) participants. The “GSR maximal improvement 3, participants (%)” value (cGVHD symptoms; Cohort 2 200 mg BID) was 1 (6%) participants, the “GSR maximal improvement from baseline −7, participants (%)” value (cGVHD symptoms; Cohort 2 200 mg BID) was 0 (0%) participants and the “GSR maximal improvement −1, participants (%)” value (cGVHD symptoms; Cohort 2 200 mg BID) was 2 (13%) participants. For the same molecule, the “GSR maximal improvement −2, participants (%)” value (cGVHD symptoms; Cohort 2 200 mg BID) was 4 (25%) participants, the “GSR maximal improvement −3, participants (%)” value (cGVHD symptoms; Cohort 2 200 mg BID) was 0 (0%) participants and the “GSR maximal improvement −4, participants (%)” value (cGVHD symptoms; Cohort 2 200 mg BID) was 0 (0%) participants. The “GSR maximal improvement −5, participants (%)” value (cGVHD symptoms; Cohort 2 200 mg BID) was 2 (13%) participants, the “GSR maximal improvement −6, participants (%)” value (cGVHD symptoms; Cohort 2 200 mg BID) was 2 (13%) participants and the “GSR maximal improvement 0, participants (%)” value (cGVHD symptoms; Cohort 3 400 mg QD) was 3 (14%) participants. The “GSR maximal improvement 1, participants (%)” value (cGVHD symptoms; Cohort 3 400 mg QD) was 1 (5%) participants, the “GSR maximal improvement 3, participants (%)” value (cGVHD symptoms; Cohort 3 400 mg QD) was 0 (0%) participants and the “GSR maximal improvement from baseline −7, participants (%)” value (cGVHD symptoms; Cohort 3 400 mg QD) was 2 (10%) participants. The “GSR maximal improvement −1, participants (%)” value (cGVHD symptoms; Cohort 3 400 mg QD) was 4 (19%) participants, the “GSR maximal improvement −2, participants (%)” value (cGVHD symptoms; Cohort 3 400 mg QD) was 4 (19%) participants and the “GSR maximal improvement −3, participants (%)” value (cGVHD symptoms; Cohort 3 400 mg QD) was 1 (5%) participants. The “GSR maximal improvement −4, participants (%)” value (cGVHD symptoms; Cohort 3 400 mg QD) was 3 (14%) participants, the “GSR maximal improvement −5, participants (%)” value (cGVHD symptoms; Cohort 3 400 mg QD) was 0 (0%) participants and the “GSR maximal improvement −6, participants (%)” value (cGVHD symptoms; Cohort 3 400 mg QD) was 0 (0%) participants. The “CR, Esophagus” value ([1]; 200 mg BID) was 5 (42) n (%), the “CR, Eyes” value ([1]; 200 mg BID) was 6 (12) n (%) and the “CR, Joints and fascia” value ([1]; 200 mg BID) was 10 (20) n (%). The “CR, Liver” value ([1]; 200 mg BID) was 2 (50) n (%), the “CR, Lower GI” value ([1]; 200 mg BID) was 4 (57) n (%) and the “CR, Lungs” value ([1]; 200 mg BID) was 2 (9) n (%). The “CR, Mouth” value ([1]; 200 mg BID) was 17 (41) n (%), the “CR, Skin” value ([1]; 200 mg BID) was 10 (18) n (%) and the “CR, Upper GI” value ([1]; 200 mg BID) was 4 (40) n (%). The “ORR, Esophagus” value ([1]; 200 mg BID) was 5 (42) n (%), the “ORR, Eyes” value ([1]; 200 mg BID) was 25 (51) n (%) and the “ORR, Joints and fascia” value ([1]; 200 mg BID) was 33 (67) n (%). For the same molecule, the “ORR, Liver” value ([1]; 200 mg BID) was 2 (50) n (%), the “ORR, Lower GI” value ([1]; 200 mg BID) was 5 (71) n (%) and the “ORR, Lungs” value ([1]; 200 mg BID) was 5 (22) n (%). For the same molecule, the “ORR, Mouth” value ([1]; 200 mg BID) was 24 (57) n (%), the “ORR, Skin” value ([1]; 200 mg BID) was 23 (42) n (%) and the “ORR, Upper GI” value ([1]; 200 mg BID) was 4 (40) n (%). For the same molecule, the “PR, Esophagus” value ([1]; 200 mg BID) was 0 n (%), the “PR, Eyes” value ([1]; 200 mg BID) was 19 (39) n (%) and the “PR, Joints and fascia” value ([1]; 200 mg BID) was 23 (47) n (%). For the same molecule, the “PR, Liver” value ([1]; 200 mg BID) was 0 n (%), the “PR, Lower GI” value ([1]; 200 mg BID) was 1 (14) n (%) and the “PR, Lungs” value ([1]; 200 mg BID) was 3 (13) n (%). For the same molecule, the “PR, Mouth” value ([1]; 200 mg BID) was 7 (17) n (%), the “PR, Skin” value ([1]; 200 mg BID) was 13 (24) n (%) and the “PR, Upper GI” value ([1]; 200 mg BID) was 0 n (%). For the same molecule, the “CR, Esophagus” value ([1]; 200 mg QD) was 9 (47) n (%), the “CR, Eyes” value ([1]; 200 mg QD) was 8 (17) n (%) and the “CR, Joints and fascia” value ([1]; 200 mg QD) was 10 (20) n (%). For the same molecule, the “CR, Liver” value ([1]; 200 mg QD) was 2 (22) n (%), the “CR, Lower GI” value ([1]; 200 mg QD) was 4 (67) n (%) and the “CR, Lungs” value ([1]; 200 mg QD) was 4 (17) n (%). The “CR, Mouth” value ([1]; 200 mg QD) was 15 (50) n (%), the “CR, Skin” value ([1]; 200 mg QD) was 8 (15) n (%) and the “CR, Upper GI” value ([1]; 200 mg QD) was 7 (54) n (%). For the same molecule, the “ORR, Esophagus” value ([1]; 200 mg QD) was 9 (47) n (%), the “ORR, Eyes” value ([1]; 200 mg QD) was 16 (33) n (%) and the “ORR, Joints and fascia” value ([1]; 200 mg QD) was 38 (75) n (%). For the same molecule, the “ORR, Liver” value ([1]; 200 mg QD) was 3 (33) n (%), the “ORR, Lower GI” value ([1]; 200 mg QD) was 4 (67) n (%) and the “ORR, Lungs” value ([1]; 200 mg QD) was 7 (29) n (%). For the same molecule, the “ORR, Mouth” value ([1]; 200 mg QD) was 16 (53) n (%), the “ORR, Skin” value ([1]; 200 mg QD) was 18 (33) n (%) and the “ORR, Upper GI” value ([1]; 200 mg QD) was 8 (62) n (%). For the same molecule, the “PR, Esophagus” value ([1]; 200 mg QD) was 0 n (%), the “PR, Eyes” value ([1]; 200 mg QD) was 8 (17) n (%) and the “PR, Joints and fascia” value ([1]; 200 mg QD) was 28 (55) n (%). For the same molecule, the “PR, Liver” value ([1]; 200 mg QD) was 1 (11) n (%), the “PR, Lower GI” value ([1]; 200 mg QD) was 0 n (%) and the “PR, Lungs” value ([1]; 200 mg QD) was 3 (13) n (%). The “PR, Mouth” value ([1]; 200 mg QD) was 1 (3) n (%), the “PR, Skin” value ([1]; 200 mg QD) was 10 (18) n (%) and the “PR, Upper GI” value ([1]; 200 mg QD) was 1 (8) n (%). For the same molecule, the “FFS at 6 mo (95% CI)” value ([1]; 200 mg daily (n = 66)) was 73 (61-83) %.
